Experimental data published in the NIST ThermoML archive (doi:10.1016/j.jct.2007.05.011).

Assay: xn = mol fraction of the nth substance listed
Conditions: 101 kPa, Liquid; for mass density: Vibrating tube method

NCCO.O=CO [2-hydroxyethylammonium formate] + CO
Conditions | mass density [kg/m3] | speed of sound [m/s]
288.15 K, x2 = 0 | 1183.57 | 1733.9
288.15 K, x2 = 0.055 | 1176.05 | 1744.5
288.15 K, x2 = 0.098 | 1169.59 | 1733.2
288.15 K, x2 = 0.193 | 1153.03 | 1703.2
288.15 K, x2 = 0.296 | 1132.54 | 1666.2
288.15 K, x2 = 0.399 | 1108.24 | 1623.5
288.15 K, x2 = 0.5 | 1079.69 | 1573.6
288.15 K, x2 = 0.598 | 1046.63 | 1516.4
288.15 K, x2 = 0.701 | 1005.33 | 1448.4
288.15 K, x2 = 0.799 | 953.96 | 1365.8
288.15 K, x2 = 0.9 | 887.02 | 1265.2
288.15 K, x2 = 0.951 | 844.491 | 1203.6
290.65 K, x2 = 0 | 1181.81 | 1727.4
290.65 K, x2 = 0.055 | 1174.4 | 1739.2
290.65 K, x2 = 0.098 | 1167.93 | 1727.9
290.65 K, x2 = 0.193 | 1151.34 | 1697.7
290.65 K, x2 = 0.296 | 1130.83 | 1660.7
290.65 K, x2 = 0.399 | 1106.5 | 1617.8
290.65 K, x2 = 0.5 | 1077.9 | 1567.7
290.65 K, x2 = 0.598 | 1044.79 | 1510.3
290.65 K, x2 = 0.701 | 1003.42 | 1441.8
290.65 K, x2 = 0.799 | 951.962 | 1358.8
290.65 K, x2 = 0.9 | 884.894 | 1257.6
290.65 K, x2 = 0.951 | 842.26 | 1195.6
293.15 K, x2 = 0 | 1180.04 | 1721.3
293.15 K, x2 = 0.055 | 1172.74 | 1734
293.15 K, x2 = 0.098 | 1166.26 | 1722.6
293.15 K, x2 = 0.193 | 1149.65 | 1692.4
293.15 K, x2 = 0.296 | 1129.11 | 1655.3
293.15 K, x2 = 0.399 | 1104.75 | 1612.1
293.15 K, x2 = 0.5 | 1076.11 | 1561.8
293.15 K, x2 = 0.598 | 1042.95 | 1504.3
293.15 K, x2 = 0.701 | 1001.51 | 1435.3
293.15 K, x2 = 0.799 | 949.965 | 1351.9
293.15 K, x2 = 0.9 | 882.765 | 1250.2
293.15 K, x2 = 0.951 | 840.027 | 1187.8
295.65 K, x2 = 0 | 1178.27 | 1715.1
295.65 K, x2 = 0.055 | 1171.09 | 1728.8
295.65 K, x2 = 0.098 | 1164.6 | 1717.4
295.65 K, x2 = 0.193 | 1147.97 | 1687
295.65 K, x2 = 0.296 | 1127.4 | 1649.9
295.65 K, x2 = 0.399 | 1103 | 1606.5
295.65 K, x2 = 0.5 | 1074.32 | 1556
295.65 K, x2 = 0.598 | 1041.11 | 1498.2
295.65 K, x2 = 0.701 | 999.603 | 1428.8
295.65 K, x2 = 0.799 | 947.967 | 1345.1
295.65 K, x2 = 0.9 | 880.636 | 1242.7
295.65 K, x2 = 0.951 | 837.792 | 1180
298.15 K, x2 = 0 | 1176.49 | 1709
298.15 K, x2 = 0.055 | 1169.43 | 1723.6
298.15 K, x2 = 0.098 | 1162.94 | 1712.1
298.15 K, x2 = 0.193 | 1146.28 | 1681.7
298.15 K, x2 = 0.296 | 1125.68 | 1644.5
298.15 K, x2 = 0.399 | 1101.26 | 1600.9
298.15 K, x2 = 0.5 | 1072.54 | 1550.2
298.15 K, x2 = 0.598 | 1039.27 | 1492.1
298.15 K, x2 = 0.701 | 997.697 | 1422.3
298.15 K, x2 = 0.799 | 945.97 | 1338.3
298.15 K, x2 = 0.9 | 878.505 | 1235.3
298.15 K, x2 = 0.951 | 835.555 | 1172.1
300.65 K, x2 = 0 | 1174.71 | 1702.9
300.65 K, x2 = 0.055 | 1167.77 | 1718.4
300.65 K, x2 = 0.098 | 1161.28 | 1706.9
300.65 K, x2 = 0.193 | 1144.6 | 1676.4
300.65 K, x2 = 0.296 | 1123.97 | 1639
300.65 K, x2 = 0.399 | 1099.51 | 1595.3
300.65 K, x2 = 0.5 | 1070.75 | 1544.4
300.65 K, x2 = 0.598 | 1037.43 | 1486.1
300.65 K, x2 = 0.701 | 995.792 | 1415.9
300.65 K, x2 = 0.799 | 943.973 | 1331.5
300.65 K, x2 = 0.9 | 876.371 | 1227.9
300.65 K, x2 = 0.951 | 833.316 | 1164.4
303.15 K, x2 = 0 | 1172.94 | 1696.8
303.15 K, x2 = 0.055 | 1166.12 | 1713.2
303.15 K, x2 = 0.098 | 1159.62 | 1701.7
303.15 K, x2 = 0.193 | 1142.91 | 1671.1
303.15 K, x2 = 0.296 | 1122.26 | 1633.6
303.15 K, x2 = 0.399 | 1097.77 | 1589.7
303.15 K, x2 = 0.5 | 1068.96 | 1538.6
303.15 K, x2 = 0.598 | 1035.59 | 1480
303.15 K, x2 = 0.701 | 993.884 | 1409.5
303.15 K, x2 = 0.799 | 941.97 | 1324.7
303.15 K, x2 = 0.9 | 874.236 | 1220.6
303.15 K, x2 = 0.951 | 831.073 | 1156.6
305.65 K, x2 = 0 | 1171.16 | –
305.65 K, x2 = 0.055 | 1164.47 | –
305.65 K, x2 = 0.098 | 1157.95 | –
305.65 K, x2 = 0.193 | 1141.23 | –
305.65 K, x2 = 0.296 | 1120.55 | –
305.65 K, x2 = 0.399 | 1096.02 | –
305.65 K, x2 = 0.5 | 1067.17 | –
305.65 K, x2 = 0.598 | 1033.75 | –
305.65 K, x2 = 0.701 | 991.972 | –
305.65 K, x2 = 0.799 | 939.967 | –
305.65 K, x2 = 0.9 | 872.095 | –
305.65 K, x2 = 0.951 | 828.823 | –
